US6911316B1, “Medical uses of scuPA/suPAR complex” (Thrombotech Ltd., priority 1996, dated 2005)
Values joined by “and” are separate entries in the source; they are usually repeats but may differ in a detail not shown here. Equal entries are not always repeated. Each block holds one substance with its values, some of them ahead of it.

Columns and labels:
human plasma clot = assay: Fibrinolysis of clot formed by thrombin from human plasma (lytic zones / solubilized radioactivity); type: biochemical
Procedure: Fibrinogen containing plasminogen was reconstituted in phosphate buffered saline (PBS), pH 7.4 or in serum to a concentration of 3 mg/ml. Fibrin clots were prepared by the addition of 0.025 NIH units of human thrombin per […] fibrinogen solution. The mixture was decanted onto the lid of a culture dish and incubated for 60 min at room temperature. After clot formation, portions of 10 μl of PBS containing 1 μM scuPA, with or without an equimolar concentration of suPAR, were placed on several parts of the surface of the clot. The clot was incubated for 2 to 3 hr at 37° C., until the appearance of digestion areas on the surface. At that stage the clot was washed several times with PBS and incubated overnight with 0.2° trappan blue. On the following day, the clot was rinsed 4 is times with PBS and photographed The pictures were scanned with a Hoefer GS 300 scanning densitometer. The size of the lytic zones was calculated by the NIH image program. […]
Human fibrinogen (Sigma. St. Louis, Mo.) was radiolabeled with ^125I [Higazi, A A-R. & Abu-Much R. et al. J. Biol. Chem. 270:9472-9477 (1995)]. ^125I-labeled fibrinogen was added to a solution of PBS, pH 7.4, containing either 3 mg/ml fibrinogen and 1 μM glu-plasminogen or plasma. […] For determination of fibrinolysis, plasminogen activating agents (1 μM) or 1376 MAT cells, in a total volume of 10 μl each, were directly added to the center of the clot and after incubation for specific periods, the wells were washed and the radioactivity of the lavage solution was determined by means of a gamma counter. Fibrinolysis was also measured as previously described [Higazi, A A-R., et al. Biochem. J. 300:251-255 (1994)], by addition of 0.4 ml of serum or PBS, containing 25 nM of the plasminogen activator agent (scuPA, scuPA/suPAR complex or tcuPA). […] Fibrinolytic activity was determined by following the release from the ^125I-labeled fibrin clot of labeled soluble degradation products of fibrin and is illustrated in FIGS. 7 and 8.

[1] = tested on: bovine fibrinogen clot reconstituted in serum; assay: Fibrinolysis of bovine fibrinogen clot reconstituted in serum; type: biochemical; settings: FIG. 5
Procedure: (§1) Fibrinogen containing plasminogen was reconstituted in phosphate buffered saline (PBS), pH 7.4 or in serum to a concentration of 3 mg/ml. Fibrin clots were prepared by the addition of 0.025 NIH units of human thrombin per […] fibrinogen solution. The mixture was decanted onto the lid of a culture dish and incubated for 60 min at room temperature. After clot formation, portions of 10 μl of PBS containing 1 μM scuPA, with or without an equimolar concentration of suPAR, were placed on several parts of the surface of the clot. The clot was incubated for 2 to 3 hr at 37° C., until the appearance of digestion areas on the surface. At that stage the clot was washed several times with PBS and incubated overnight with 0.2° trappan blue. On the following day, the clot was rinsed 4 is times with PBS and photographed The pictures were scanned with a Hoefer GS 300 scanning densitometer. The size of the lytic zones was calculated by the NIH image program.
In an experiment designed to test the possibility that the different effects were related to the source of fibrinogen, the fibrinogen was removed from plasma by clotting with thrombin and removal of the clot by centrifugation to obtain serum. […] The possibility that the stimulatory activity was derived from the anticoagulants present in plasma was considered.

[2] = tested on: radiolabeled plasma-derived clot; assay: Lysis of radiolabeled plasma-derived clot covered with serum or PBS containing the plasminogen activator; type: biochemical, human
Procedure: (§2) Human fibrinogen (Sigma. St. Louis, Mo.) was radiolabeled with ^125I [Higazi, A A-R. & Abu-Much R. et al. J. Biol. Chem. 270:9472-9477 (1995)]. ^125I-labeled fibrinogen was added to a solution of PBS, pH 7.4, containing either 3 mg/ml fibrinogen and 1 μM glu-plasminogen or plasma. Clots were formed in wells of tissue culture plates with an inner diameter of 16 mm (Costar, Cambridge, Mass.). To initiate the clot formation, 10 μl of a solution containing 2 NIH units of thrombin (Sigma. St. Louis, Mo.) were added to 0.4 ml of fibrinogen solution or to plasma. For determination of fibrinolysis, plasminogen activating agents (1 μM) or 1376 MAT cells, in a total volume of 10 μl each, were directly added to the center of the clot and after incubation for specific periods, the wells were washed and the radioactivity of the lavage solution was determined by means of a gamma counter. Fibrinolysis was also measured as previously described [Higazi, A A-R., et al. Biochem. J. 300:251-255 (1994)], by addition of 0.4 ml of serum or PBS, containing 25 nM of the plasminogen activator agent (scuPA, scuPA/suPAR complex or tcuPA). The plates were incubated at 37° C. in an incubator for the required time (about 2 hours, see legends to the Figures). Aliquots of 25 μl were removed at the specific time point for counting of the solubilized label in a gamma counter. Fibrinolytic activity was determined by following the release from the ^125I-labeled fibrin clot of labeled soluble degradation products of fibrin and is illustrated in FIGS. 7 and 8.

human IgG = assay: Binding of 125I-suPAR to IgG, precipitation with protein G; settings: for precipitation by protein G from native plasma: 50 nM radiolabeled protein, FIG. 11
Procedure: Plasma (5 ml) were incubated with 1 ml of IgG (bound to beads, as described) for 2 hr, at 4° C. The beads were precipitated by centrifugation and the plasma was decanted and used for precipitation of radiolabeled suPAR or for formation of clots after addition of thrombin, as described herein before.
(§3) Binding of ^125I-suPAR to IgG was determined by incubation of 50 nM radiolabeled suPAR, 0.1 ml plasma and 0.5 ml of IgG protein, for 2 hr at 4° C. Following incubation, the mixture was centrifugated. The precipitate was washed 4 is times with PBS and the radioactivity incorporated into protein G was determined. Non-specific binding was determined by using plasma that had been depleted of IgG or by measuring the precipitation of irrelevant protein. All experiments were repeated at least three times.

[3] = tested on: purified bovine fibrinogen clot; assay: Fibrinolysis of purified fibrinogen clot, size of lytic zones; type: biochemical
Procedure: as §1

[4] = tested on: radiolabeled fibrinogen-derived clot; assay: Lysis of radiolabeled fibrinogen-derived clot covered with serum or PBS containing the plasminogen activator; type: biochemical, human
Procedure: as §2, with “The plates were incubated at 37° C. in an incubator for the required time (about 2 hours, see legends to the Figures). Aliquots of 25 μl were removed at the specific time point for counting of the solubilized label in a gamma counter.” left out

[5] = tested on: radiolabeled fibrinogen-derived clot containing 1 μM glu-plasminogen; assay: Fibrinolytic activity of suPAR-Sepharose precipitates on fibrinogen-derived clot; type: biochemical, human; settings: FIG. 10
Procedure: as §2, with “The plates were incubated at 37° C. in an incubator for the required time (about 2 hours, see legends to the Figures). Aliquots of 25 μl were removed at the specific time point for counting of the solubilized label in a gamma counter.” left out, “8. […]” for “8.”

[6] = tested on: clot prepared from IgG-depleted plasma; assay: Lysis of clots derived from normal or IgG-depleted plasma; type: biochemical, human; settings: versus clot from normal plasma, FIG. 13
Procedure: as §2, with “The plates were incubated at 37° C. in an incubator for the required time (about 2 hours, see legends to the Figures). Aliquots of 25 μl were removed at the specific time point for counting of the solubilized label in a gamma counter.” left out, “8. […]” for “8.”

PAI-1 = PAI-1 (Homo sapiens, UniProt P05121); settings: cited from earlier work
Chain of PAI-1 (P05121 24-402, species assumed): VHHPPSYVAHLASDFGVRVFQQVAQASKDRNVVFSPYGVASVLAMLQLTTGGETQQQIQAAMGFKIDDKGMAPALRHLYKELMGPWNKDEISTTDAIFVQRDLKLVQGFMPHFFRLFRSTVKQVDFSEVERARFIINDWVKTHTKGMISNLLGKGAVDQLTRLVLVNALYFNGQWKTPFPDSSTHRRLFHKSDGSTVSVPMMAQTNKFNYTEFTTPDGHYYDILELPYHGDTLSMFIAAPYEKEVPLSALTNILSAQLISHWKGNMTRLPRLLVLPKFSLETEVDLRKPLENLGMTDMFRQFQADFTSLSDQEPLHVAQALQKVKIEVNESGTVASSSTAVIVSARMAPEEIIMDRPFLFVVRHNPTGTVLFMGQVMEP

[7] = tested on: 125I radiolabeled fibrinogen clots; assay: Lysis of 125I radiolabeled fibrinogen clot, activator added directly to the clot, solubilized radioactivity; type: biochemical, human; settings: 2 hrs
Procedure: as §2, with “The plates were incubated at 37° C. in an incubator for the required time (about 2 hours, see legends to the Figures). Aliquots of 25 μl were removed at the specific time point for counting of the solubilized label in a gamma counter.” left out

human fibrinogen = assay: Fibrinolysis of human fibrinogen clot (not shown); type: biochemical; settings: human fibrinogen instead of bovine
Procedure: as §1

IgG = assay: Binding of suPAR to IgG with rabbit serum; settings: rabbit serum instead of human serum, data not shown
Procedure: as §3

plasminogen = settings: cited from earlier work
[8] = plasma derived clot covered by serum, FIG. 8

Substance: ATF: amino-terminal fragment of urokinase; blocks interaction of scuPA with suPAR [reference compound]
- effect of ATF on the stimulatory effect of suPAR on scuPA-mediated fibrinolysis (human plasma clot; plasma clot, FIG. 3): almost complete inhibition
- effect of ATF on the stimulatory effect of suPAR ([1]; bovine fibrinogen clot in serum): can be abolished
- effect of ATF on scuPA/suPAR mediated fibrinolysis ([2]; 250 nM ATF, plasma clot covered with serum): significantly inhibited

- precipitation by protein G from native plasma (human IgG): not precipitated
Substance: plasminogen: radiolabeled plasminogen used as irrelevant protein control in the protein G precipitation [reference compound]

Substance: scuPA/suPAR complex: complex comprising single chain urokinase type plasminogen activator (scuPA) and soluble urokinase plasminogen activator receptor (suPAR)
- lytic area ([3]; purified bovine fibrinogen clot, FIG. 1(A), two wells each, listed as scuPA and suPAR): 1.19 cm^2 and 1.05 cm^2
- size of the lytic area (human plasma clot; human plasma clot, FIG. 2(A) lane (c), upper and lower panels, listed as scuPA and suPAR): 0.94 cm^2 and 0.90 cm^2
- efficiency of clot cleavage compared with scuPA alone ([1]; purified bovine fibrinogen added to serum): greater efficiency than by scuPA alone
- change of activity when a plasma clot is used instead of a fibrinogen clot ([2]; FIG. 8): increase
- effect of PBS instead of serum on the surface of the clot on fibrinolytic activity ([2]; plasma clot): not affected
- time to half maximal fibrinolysis ([2]; plasma clot covered with serum, 25 nM activator): 54 min
- time to half maximal fibrinolysis ([2]; plasma clot covered with serum, 50% decrease of the concentration of the complex, data not shown): 102 min
- time needed for half maximal fibrinolysis ([2]; plasma clot covered with serum, doubling the concentration of the complex, data not shown): 33 min
- activity on clot formed by clotting of plasma compared with tcuPA [2, 8]: greater than that of tcuPA
- effect of serum covering the clot on fibrinolysis ([4]; clot formed by purified fibrin covered with serum or PBS, FIG. 7): stimulated
- fibrinolytic activity relative to that obtained on a plasma-derived clot ([4]; purified fibrin clot covered with serum): about 60%
- fibrinolytic activity in the absence of plasma-derived protein(s) [5]: little fibrinolytic activity
- scuPA/suPAR-mediated fibrinolytic activity in the presence of plasma-derived protein(s) [5]: significantly increased
- scuPA/suPAR mediated fibrinolysis of clot from IgG-depleted plasma [6]: markedly retarded
- mechanism of PAI-1 inhibition (PAI-1): competitive and reversible
- susceptibility of activity to PAI-1 (PAI-1): relatively resistant

- precipitation by protein G from native plasma (human IgG): immunoprecipitates
- precipitation with purified human IgG instead of plasma (human IgG; FIG. 12): the same results were obtained
- precipitation of suPAR with IgG-depleted plasma (human IgG; IgG-depleted plasma versus native plasma): less than 25%
- interaction between IgG and suPAR (IgG): no interaction
Substance: suPAR: soluble urokinase plasminogen activator receptor
- inhibition of scuPA activity in the presence of suPAR ([3]; unlabeled bovine fibrinogen clot, equimolar suPAR): about 40%
- inhibition of scuPA activity in the presence of suPAR [7]: ~50%
- enhancement of scuPA-mediated fibrinolysis by addition of suPAR (human plasma clot; plasma clots, FIG. 2): up to 14 fold
- inhibition of scuPA activity by suPAR (human fibrinogen): also observed
- effect of suPAR alone on fibrinolysis ([2]; plasma clot, FIG. 6): depends on the presence of scuPA
- effect of addition of suPAR to tcuPA [2, 8]: small stimulatory effect
- effect of suPAR on scuPA activity (plasminogen; plasmin substrate Spect PL): stimulated
- effect of suPAR on scuPA-mediated plasminogen activation (plasminogen; synthetic plasmin substrate S-2251): inhibit
